Experimental data as given in PMC11855866 (International Journal of Molecular Sciences, 2025).

Tests used:
[1] = test system: HepG2 cells; test: MTT cytotoxicity / synergy assay, 72 h, HepG2; details: Homo sapiens, HepG2, 72 h, read-out: IC50 Value in Specific Cell Line, HepG2, MTT, 72 h; n.d. = IC50 not achieved within concentrations tested
Method: (§1) The synergistic effects of drug combinations were studied in various cancer cell lines, including MCF-7 (human breast cancer), A549 (human lung cancer), U-87 MG (human malignant glioma), HepG2 (human liver cancer), and HUH7 (human liver cancer). HMEC-1, an immortalized human microvascular endothelial cell line, was used as a model for normal cells. All cell lines were purchased from ATCC (Rockville, MD, USA).
(§2) The cancer cell lines were cultured in Dulbecco’s Modified Eagle’s Medium (DMEM; Sigma-Aldrich) supplemented with 10% FBS and 1% penicillin/streptomycin mixture (10,000 U/mL penicillin and 10 mg/mL streptomycin; Sigma-Aldrich) at 37 °C in a humidified atmosphere with 5% CO2.
(§3) For the MTT assay, exponentially growing cells were seeded into 96-well plates at a density of 5 × 10³ cells per well. After 24 h of incubation, the medium was replaced with 100 µL of fresh medium containing the tested compounds. After 72 h of treatment, cell viability was assessed using the MTT assay as described earlier. […] IC50 values were calculated using GraphPad Prism 9 software (GraphPad Software).

[2] = test system: MC38 melanoma model; set-up: method as in PMID 36033393; details: GLIM 5 mg/kg every 2 days, i.p.; cited from earlier work
[3] = test system: MC38 model; set-up: method as in PMID 36033393; details: GLIM 5 mg/kg every 2 days, i.p.; cited from earlier work
[4] = test system: HSA; set-up: method as in Figure S2 [39–71]; details: ref Figure S2 [39–71]; cited from earlier work
[5] = Hemolysis (Drabkin's method); assay type: cell-based; details: human, washed erythrocyte (RBC) suspension, 40% hematocrit, pH 7.4, single drug, RT, dark, CTRL− 11.6%
Method: Blood samples were collected from healthy human volunteers into Vacutainer tubes containing 3% sodium citrate (BD Biosciences, Warsaw, Poland). Whole blood was centrifuged at 1500 rpm (RCF = 214 g) for 10 min in a CompactStar CS4 centrifuge (VWR) at RT to separate erythrocytes, which were washed twice with PBS (pH 7.4) and centrifuged at 1500 rpm for 5 min at RT after each wash. Hematocrit was measured to adjust the final RBC concentration in PBS (pH 7.4) to 40%. The drugs were then dissolved in the RBC suspension at the final concentrations outlined in Figure 8. RBCs incubated in dH2O were used as a positive control (100% hemolysis), while RBCs in PBS were used as the negative control. A blank sample of PBS without RBCs or drugs provided a baseline for absorbance measurements. Experimental samples, along with positive, negative, and vehicle (0.5% DMSO) controls, were incubated for 4 h at RT in the dark. After incubation, the samples were centrifuged at 1500 rpm for 5 min at RT, and the supernatant was collected to measure hemoglobin release using Drabkin’s method. Absorbance was measured at 540 nm with a Jenway 6305 UV/Vis spectrophotometer (Bibby Scientific, Staffordshire, UK). This study was conducted in triplicate. The percentage of hemolysis was calculated by comparing the absorbance at 540 nm (OD540) of the test sample with that of the positive control using the following formula:(2) % Hemolysis=OD540Test−OD540(Blank)/OD540Total Lysis−OD540(Blank)×100%

[6] = test system: CT26 colon cancer model; set-up: method as in PMID 36033393; details: GLIM 5 mg/kg every 2 days, i.p.; cited from earlier work
[7] = test system: A549 cells; test: MTT cytotoxicity / synergy assay, 72 h, A549; details: Homo sapiens, A549, 72 h, read-out: IC50 Value in Specific Cell Line, A549, MTT, 72 h; n.d. = IC50 not achieved within concentrations tested
Method: as §1, §2, §3

[8] = cited from earlier work

Which IC50 [1] does the source give for `CCC1=C(C)CN(C(=O)NCCc2ccc(S(=O)(=O)NC(=O)N[C@H]3CC[C@H](C)CC3)cc2)C1=O` [GLIM, Glimepiride] here?
Its IC50 is 177 µM.

And the “reduction of tumor mass” value [2]?
The value was 57%.

What about the “increase in CD8+ T cell numbers” value [3] of the same compound?
Its value is under 10%.

What about the “nKa (global affinity constant, HSA)” value [4] of the same compound?
Its value is 910000 M⁻¹.

What about the hemolysis at 4 h [5] of the same compound?
The hemolysis at 4 h was 11.2 to 11.9%.

And the “increase in CD8+ T cell infiltration” value [6]?
The value was “about 100%”.

And the “reduction of tumor mass” value [6]?
The value was 45%.

What about the IC50 [7] of the same compound?
Its IC50 is 353 µM.

What about the logP [8] of the same compound?
The logP was 3.81.
